Reference: patent US12011469B2, “Parenteral delivery device and methods of use” (Vireo Systems, Inc., priority 2017, dated 2024)

Tests used:
[1] = tested on: co-cultures of C. albicans and Lactobacilli; details: Lactobacilli added dropwise immediately after C. albicans was spread onto the plate
From the text: In some cases, the C. albicans was co-cultured with the Lactobacilli. For this inoculum, equal volumes of the two suspensions of organisms described earlier were mixed and used to spread on LB-agar plates for testing for any effect of the co-culture on the anti-yeast activity of hydrogen borate or any effect on Lactobacillus growth.

Lactobacilli = details: 60 mg hydrogen borate in well, LB-agar, overnight; Lactobacilli added one hour or 12 hours after hydrogen borate
Description: Lactobacillus capsular material (40 mg) was suspended in 1.0 milliliter of LB-broth and 25 microliters was spread on the surface of half of an LB-agar plate. For comparison, the other half of the plate spread with C. albicans. A hole was punched in the middle of the plate and 60 mg of hydrogen borate was added. The plates were incubated overnight and scored for growth and/or a zone of inhibition around the hydrogen borate well.
In some cases, only about a quarter of the LB-agar plate was spread with the L-capsular suspension in which case only 10 microliters was used.

[2] = tested on: Candida albicans, ATTC number 10231; assay: microbe, parasite or virus in culture; details: read-out: zone of inhibition against the yeast, Candida albicans
Description: Candida albicans, ATTC number 10231, was used as a test organism. Cultures of C. albicans were grown in a rotator overnight at room temperature in tubes of LB-broth. The cultures contained approximately 1×10^8 organisms per mL. The suspension was diluted 1:1000 in LB-broth and 50 microliters were spread on the surface of a LB-agar plate, i.e., approximately 5,000 organisms.

## OB(O)O [hydrogen borate]
[1]
  effect of co-culture on the anti-yeast activity of hydrogen borate: did not affect the activity
Lactobacilli
  effect on the growth of Lactobacilli: did not have an effect
[2]
  zone of inhibition at 60000 µg/disc: 45 mm
